Experimental data from EP4653017A1, “ANTIBODY-DRUG CONJUGATE AND USE THEREOF” (Tyligand Bioscience (Shanghai) Limited, priority 2023, dated 2024).
Where a name gives a salt, the structure may show the parent alone.

Legend:
CT26 cells = experiment: Inhibition of CT26 cell proliferation (CellTiter-Glo); assay type: cell-based, mouse
Protocol: CT26 cells are a mouse colorectal cancer cell line. In this experiment, CellTiter-Glo Luminescence Cell Viability Assay kit from Promega was used to assess the inhibitory activity of the compounds on CT26 cell proliferation.
When CT26 cells (ATCC #CRL-2638) were revived, the cryovial was rapid shaken in a 37°C water bath to thaw with 1 min. The thawed cell suspension was mixed well with DMEM medium (GE Company, Cat. No. #SH30243.01) containing 10% FBS (GIBCO, Cat. No. #10099-141), centrifuged at 1000 rpm for 5 min, and the supernatant was discarded. The cell pellet was resuspended in 5 mL of complete medium (DMEM medium containing 10% FBS), placed in a cell culture flask with a bottom area of 25 cm^2, and cultured in a cell incubator at 37°C, 5% CO2, and 95% humidity. Passage was performed when the confluence rate of cells reached 70%~80%. Referring to the cell passage method at plating, all cells in the flask were transferred to a 15 mL centrifuge tube, centrifuged at 1000 rpm for 5 minutes, and the supernatant was discarded. The cell pellet was resuspended in 5 mL of new complete medium, 1 mL was placed in a cell culture flask with a bottom area of 25 cm^2, and 4 mL of fresh complete medium was added to continue the culture. Plating was performed when the cell confluence rate of cells reached 70% to 80% again. Referring to the cell passage method at plating, 1/5 of the cell suspension was maintained and the remaining 4/5 of the cell suspension was placed in a 15 mL centrifuge tube. The cells were centrifuged, the old medium was discarded, the cells was washed once with DMEM medium (without serum), and centrifuged to remove the supernatant. Cells were resuspended with DMEM medium (without serum). […]. A cell suspension at a density of 1.1 x 10^4 viable cells/mL was prepared using DMEM medium (without serum) and 90 µL of the cell suspension was added to 96-well clear flat-bottom black-walled cell culture plate wells (Corning, Cat. No. #3603) to yield a cell density of 1000 viable cells/well in the plate. A control group without cells, without compounds, and with complete medium only (i.e., culture medium control) was set up, and a control group without compounds and with cells (i.e., cell control) was set up. The plates were incubated overnight in a cell incubator.
A DMSO stock solution of 10 mM compound was first serially diluted at a 3.16-fold dilution ratio with DMSO (Sigma, Cat. No. #D2650) to a ninth concentration and a tenth concentration of DMSO control without compound was set. DMSO solutions containing different concentrations of the compound were then diluted a 10-fold dilution ratio with PBS (Solarbio company, Cat. No. #P1020) to achieve a DMSO content of 10% in each concentration of the compound solution. Finally, 10 µL of the above solution was added to the corresponding cell culture plate to achieve a starting concentration of 100 µM compound, a 3.16-fold dilution ratio of adjacent concentrations, and a DMSO content of 1% in the cell culture plate. The plates were maintained in a cell incubator for an additional 120 hours.
After 120 hours, the CellTiter-Glo reagent (Promega, Cat. No. #G7572) was thawed and the plate was equilibrated at room temperature for 30 min. Then, 100 µL CellTiter-Glo was added to each well of the plate and shaken on an orbital shaker for 5 min to fully lyse the cells. The plate was placed at room temperature for 20 min to stabilize the cold light signal, and the cold light value of each well was scanned with a multifunctional microplate reader (Molecular Devices, Spectramax M3) at full wavelength.
The compound of the present invention and ADU-S100 (MCE, Cat. No. #HY12885A) were used as controls: Clofarabine (Wuhu Huaren Technology, Cat. No. #HR-00701002), Cladribine (CSNpharm, Cat. No. #CSN10004), Gemcitabine Hydrochloride (Shaoyuan, Cat. No. #SY014538), Gemcitabine Prodrug LY2334737 (home-made). […]

THP-1 cells = experiment: Activation of IFN-β secretion by THP-1 cells (IFN-beta ELISA); assay type: cell-based, human
FaDu = experiment: Inhibition of tumor cell line proliferation (Table 3), FaDu; assay type: cell-based; details: Human pharyngeal squamous carcinoma cell
H22 = experiment: Inhibition of tumor cell line proliferation (Table 3), H22; assay type: cell-based; details: H22, Mouse hepatoma cells
A20 = experiment: Inhibition of tumor cell line proliferation (Table 3), A20; assay type: cell-based; details: A20, Mouse B lymphoma cells
A375 = experiment: Inhibition of tumor cell line proliferation (Table 3), A375; assay type: cell-based; details: A-375; A375, Human melanoma cells
[1] = tested on: human gastric cancer NCI-N87 cells; experiment: Inhibition of NCI-N87 cell proliferation (CTG assay); assay type: cell-based
Protocol: NCI-N87 cells (Cell Bank of Chinese Academy of Sciences, Cat. No. #TCHu130) were cultured at 37°C, 5% CO2, 95% humidity in RPMI 1640 + 10% FBS (ExCell Bio, Cat. No. #FND500), the cells in logarithmic growth phase were harvested and counted, and cell viability was measured using Countstar automated cell counter based on classical trypan blue staining principle to ensure that the cell viability was above 90%. The cell concentration was adjusted, 135 µL of cell suspension was added into 96 well clear flat bottom black wall plate (Corning, Cat. No. #3904), 2000/well, and the cells was incubated in 96 well plate at 37°C and 5% CO2.
The cells in the 96 well plates that had been dosed were incubated at 37°C, 5% CO2 for 5 days before performing CTG assay. the plate was equilibrated to room temperature for 30 min and CTG Reagent (CellTiter-Glo® Luminescent Cell Viability Assay (Promega, Cat. No. #G7573) was melt, 50 µL of CTG Solution was added to each well, and shaked on an orbital shaker for 2 min to lyse the cells. The plate was left at room temperature for 10 min to stabilize the cold light signal and the cold light value was read (EnVision® Multifunctional Plate Reader, PerkinElmer#2105). [formula]
GraphPad Prism software was used to analyze the data, and Dose-response-inhibition equation was used to fit the data to obtain the dose-response curve from which IC50 value was calculated. […]

Nc1nc2c(ncn2[C@@H]2O[C@@H]3CO[P@@](=O)(S)O[C@H]4[C@H](F)[C@H](n5cnc6c(N)nc(Cl)nc65)O[C@@H]4CO[P@@](=O)(S)O[C@@H]2[C@@H]3O)c(=O)[nH]1 [CDN-3, (2',3')-cyclo-(Rp,Rp)-[2'-O-thiophosphodiester-guanosine]-[3'-O-thiophosphodiester-2-chloro-2'-deoxy-2'-fluoro-beta-adenosine]diammonium salt]
IC50 (CT26 cells; Mus musculus, CT26, 120 h, read-out: CT-26 activity): < 1 µM
inhibitory ability on growth of CT26 tumor cells in vitro (in words) (CT26 cells; superior to ADU-S100): particularly significant inhibitory ability
STING agonist activity (in words) (THP-1 cells; EC50 stronger than 2',3'-cGAMP, comparable to ADU-S100): significant STING agonist activity
EC50 (THP-1 cells; Homo sapiens, THP-1, 24 h, read-out: THP-1 activity): 1 to 10 µM
IC50 (FaDu): 0.499 µM
IC50 (H22): 0.982 µM
IC50 (A20): 0.032 µM
IC50 (A375): 0.206 µM
inhibitory effects on NCI-N87 cell proliferation (in words) [1]: strong inhibitory effects
IC50 ([1]; Homo sapiens, 120 h, NCI-N87, 5 days incubation, top concentration 600 nM): 0.209 µM
